Measurements as given in patent US10766926B2, “Composition for autophagy inhibiting in cell, and pharmaceutical composition for preventing or treating tumor disease, or inhibiting anti-cancer agents resistance containing the same” (L-BASE CO., LTD, priority 2018, dated 2020).

What was measured:
[1] = test system: PC9 cell line and PC9-ER cell line; experiment: MTT assay, resistance of PC9 and PC9-ER cell lines to anticancer agents; type: cell-based; conditions: anticancer agent 1/10-fold serial dilution, 24 hours, FIGS. 3A and 3B
Protocol: The cancer cell line (PC9) used in the present invention was cultured in a minimum essential medium in a conditioned incubator (37° C.) supplemented with 10% fetal bovine serum and antibiotics. The cancer cell line (PC9-ER) was constructed to have resistance by exposing to erlotinib as an anticancer agent for a long period of time.
Additionally, the MTT assay was performed so as to confirm the resistance of the PC9 cell line and the PC9-ER cell line to anticancer agents.
Specifically, an equal number of the PC9 cell line and the PC9-ER cell line were cultured in a 96-well cell culture plate, treated with an anticancer agent subjected to a 1/10-fold serial dilution for 24 hours, and confirmed using MTT. As an experiment to utilize the principle that NADH present in the mitochondria of a living cell reacts with MTT to form formazan, formazan was dissolved in DMSO and its absorbance was measured at 570 nm and thereby the growth activity of the cells was confirmed.

H1975 cell line = experiment: MTT assay, resistance of H1975 cell line to osimertinib after polypeptide treatment; type: cell-based; conditions: for anticancer activity through the inhibition of autophagy: conclusion of Example 5
Protocol: Additionally, after the treatment with the polypeptide 1, polypeptide 2, and polypeptide 3, respectively, the MTT assay was performed so as to confirm the resistance to osimertinib (Tagrisso), an anticancer agent.
Specifically, an equal number of cells of the H1975 cell line were plated into a 96-well cell culture plate and treated with the polypeptides (1 to 3) for 24 hours. Then, the cells were treated with osimertinib (Tagrisso), an anticancer agent, which was subjected to a 1/10-fold serial dilution, for 24 hours and were confirmed using MTT. As an experiment to utilize the principle that NADH present in the mitochondria of a living cell reacts with MTT to form formazan, formazan was dissolved in DMSO and its absorbance was measured at 570 nm and thereby the growth activity of the cells was confirmed.

PC9-ER cell line [2] = experiment: MTT assay, resistance of PC9-ER cell line to anticancer agent after polypeptide treatment; type: cell-based; conditions: conclusion of Example 2
Protocol: Additionally, the PC9-ER cell line was treated with the polypeptide 1, polypeptide 2, and GNTITIKT (polypeptide 3), respectively, and the MTT assay was performed so as to confirm the resistance of the PC9-ER cell line to anticancer agents.
Specifically, the PC9-ER cell line was plated on a 96-well cell culture plate and treated with each of the polypeptides (1 to 3) for 24 hours. Then, the cells were treated for with an anticancer agent subjected to a 1/10-fold serial dilution for 24 hours and confirmed using MTT. As an experiment to utilize the principle that NADH present in the mitochondria of a living cell reacts with MTT to form formazan, formazan was dissolved in DMSO and its absorbance was measured at 570 nm and thereby the growth activity of the cells was confirmed.

H1975 cells = experiment: western blot of autophagy controlling proteins in H1975 cells; type: cell-based; conditions: FIG. 10
PC9-ER cell line [3] = experiment: inhibitory effect against tumor formation, PC9-ER tumor in nude mice; type: in vivo, athymic nude mice (BALB/C nude); conditions: PC9-ER tumor in nude mice, 0, 50, 100, 200 μg/mouse, 5 injections through caudal vein, measured on day 41; FIGS. 8A-8C
Protocol: (§1) Specifically, athymic nude mice (BALB/C nude, 5 to 6-week old females) were subcutaneously injected on the side with the PC9-ER cell line (2×10^6 cells/mouse) to induce tumor. When the tumor volume reached about 150 mm^3, the polypeptide 2 was injected a total of 5 times through the caudal vein and the changes in the tumor size were examined. The tumor volume was directly measured using a caliper and calculated by the following equation (length×width×height×0.5). In order to confirm the inhibitory effect of the polypeptide 2 against tumor formation, the peptide (at concentrations of 0 μg/mouse, 50 μg/mouse, 100 μg/mouse, and 200 μg/mouse) was injected 5 times through the caudal vein from day 25 at 3 day intervals. On the 41st day, the tumors were separated and the sizes of the tumor volumes were measured, and western blot was performed using each labeled antibody.

MCF7^R cell line [4] = experiment: LC3 immunofluorescence staining in MCF7^R cell line; type: cell-based; conditions: 24 hours treatment, confocal microscopy, FIG. 13
Protocol: Additionally, after the treatment with the polypeptide 2 in the MCF7^R cell line, the immunofluorescence staining was performed.
(§2) Specifically, after treating the polypeptide 2 on the MCF7^R cell line for 24 hours, the cells were fixed at room temperature using 4% formaldehyde. Then, the cells were reacted at room temperature for 30 minutes so as to prevent inaccurate binding to antibodies using PBS containing 0.1% BSA, and allowed to react with LC3 antibodies (cell signaling) at 4° C. for 24 hours. After removing the antibodies, the cells were washed with PBS and allowed to react with secondary antibodies (Thermo Fisher) labeled with Alexa 488 fluorescence at room temperature for 1.5 hours. After the reaction, the cells from which antibodies were removed were washed with PBS and stained with DAPI (Thermo Fisher) for 1 minute.

MCF7^R cell line [5] = experiment: western blot of autophagy controlling proteins in MCF7^R cell line; type: cell-based; conditions: FIG. 12
Protocol: MCF7^R cancer cell line having resistance to anticancer agents was constructed to have resistance by exposing to celastrol for a long period of time
To examine the effects of the polypeptide 1 and the polypeptide 2 on the proteins of autophagy controlling mechanism, western blot was performed using each labeled antibody in the MCF7^R cell line.

PC9-ER cell line [6] = experiment: western blot of tumor tissue from PC9-ER tumor-bearing nude mice; type: in vivo, athymic nude mice (BALB/C nude); conditions: 50-200 μg/mouse, FIG. 9
Protocol: as §1

PC9-ER cell line [7] = experiment: LC3 immunofluorescence staining in PC9-ER cell line; type: cell-based; conditions: 24 hours after treatment, confocal microscopy, FIG. 5
Protocol: Additionally, the cells were subjected to immunofluorescence staining after treating the PC9-ER cell line with the polypeptide 2.
as §2, with “Specifically, 24 hours” for “Specifically,”, “PC9-ER” for “polypeptide 2 on the MCF7^R”, “with the polypeptide 2,” for “for 24 hours,”

PC9-ER cell line [8] = experiment: western blot of autophagy mechanism proteins in PC9-ER cell line treated with polypeptide; type: cell-based; conditions: FIG. 4
Protocol: An attempt was made to confirm the inhibitory effects of SPTPKT (polypeptide 1) and QTATAKA (polypeptide 2) against autophagy, based on the results that the expression of ATG5 and ATG5-ATG12 proteins which are known to be involved in autophagy in the cancer cell line (PC9-ER).
Specifically, the PC9-ER cell line was treated with each of the polypeptide 1 and the polypeptide 2 and the expression levels of Beclin1, p-Belclin1, ATG5-ATG12, LC3 I, and LC3 II (i.e., proteins associated with autophagy mechanism) were compared by western blot method, and the results are shown in FIG. 4.

| Compound | resistance of PC9-ER cell line to the anticancer agent compared to PC9 cell line [1] | anticancer activity through the inhibition of autophagy (H1975 cell line) | inhibitory effect against autophagy in the cancer cell line having resistance to anticancer agents (PC9-ER cell line [2]) | expression of p-AMPK, p-Beclin1, ATG5, ATG5-ATG12, LC3 I and LC3 II (H1975 cells) | expression level of p62 protein (MCF7^R cell line [5]) | expression levels of p-Beclin1, ATG5, ATG5-ATG12, LC3 I and LC3 II proteins (MCF7^R cell line [5]) | expression levels of Beclin1, p-Beclin1, ATG5-ATG12, LC3 I and LC3 II proteins (PC9-ER cell line [8]) | further results |
| --- | --- | --- | --- | --- | --- | --- | --- | --- |
| CC(=O)O[C@@]12CO[C@@H]1C[C@H](O)[C@@]1(C)C(=O)[C@H](O)C3=C(C)[C@@H](OC(=O)[C@H](O)[C@@H](NC(=O)OC(C)(C)C)c4ccccc4)C[C@@](O)([C@@H](OC(=O)c4ccccc4)[C@H]21)C3(C)C [docetaxel] | higher resistance |  |  |  |  |  |  |  |
| CC(=O)O[C@H]1C(=O)[C@@]2(C)[C@H]([C@H](OC(=O)c3ccccc3)[C@]3(O)C[C@H](OC(=O)[C@H](O)[C@@H](NC(=O)c4ccccc4)c4ccccc4)C(C)=C1C3(C)C)[C@]1(OC(C)=O)CO[C@@H]1C[C@@H]2O [taxol] | higher resistance |  |  |  |  |  |  |  |
| GNTITIKT [polypeptide 3] |  | anticancer activity | inhibitory effect against autophagy |  |  |  |  |  |
| QTATAKA [polypeptide 2] |  | anticancer activity | inhibitory effect against autophagy | lowered | increased | reduced | lowered | size of tumors (tumor volume) (PC9-ER cell line [3]): significantly reduced; resistance to osimertinib (Tagrisso), polypeptide at different concentrations (H1975 cell line; MTT): reduced in a concentration-dependent manner; expression level of LC3 puncta (MCF7^R cell line [4]): lowered; expression of p-AMPK, Beclin1 and p-Beclin1 proteins in tumor tissue (PC9-ER cell line [6]): decreased in a concentration-dependent manner; expression of p-mTOR and p62 proteins in tumor tissue (PC9-ER cell line [6]): increased in a concentration-dependent manner; expression level of LC3 puncta (PC9-ER cell line [7]): lowered |
| SPTPKT [polypeptide 1] |  | anticancer activity | inhibitory effect against autophagy | lowered | increased | reduced | lowered |  |
